Laboratory results reported in article PMC10824666 (Nature Cancer, 2023).
Read-outs that look alike come from different tables or passages of the source.

Legend:
Test in all cases: biochemical
Set-up in all cases: Eurofins DiscoverX kinase panel, competitive binding assay at 1 uM, percent of DMSO control
Settings in all cases: competitive binding, percent of DMSO control
Aurora 2 = target: T1, Aurora 2 (Homo sapiens, UniProt O14965)
T1 construct: gene AURKA
T1 sequence (O14965 1-403): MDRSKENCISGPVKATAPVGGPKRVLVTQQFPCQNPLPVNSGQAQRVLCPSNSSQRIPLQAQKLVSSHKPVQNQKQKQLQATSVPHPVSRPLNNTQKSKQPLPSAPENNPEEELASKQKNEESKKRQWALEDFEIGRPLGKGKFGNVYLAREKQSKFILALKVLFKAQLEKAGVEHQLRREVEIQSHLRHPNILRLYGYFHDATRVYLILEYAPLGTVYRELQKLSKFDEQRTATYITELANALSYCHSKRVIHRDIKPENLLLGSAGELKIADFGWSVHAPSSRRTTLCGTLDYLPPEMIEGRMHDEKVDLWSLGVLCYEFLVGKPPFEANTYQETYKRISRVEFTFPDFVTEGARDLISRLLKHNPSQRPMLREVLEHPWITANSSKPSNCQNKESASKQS
Summary of the method: (§1)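 Single-point profiling at 1 µM compound in a competition-binding format against 96 kinases, read out as POC relative to control; n = 1.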

FGFR1 = FGFR1 (Homo sapiens, UniProt P11362)
FGFR1, sequence (P11362 whole entry): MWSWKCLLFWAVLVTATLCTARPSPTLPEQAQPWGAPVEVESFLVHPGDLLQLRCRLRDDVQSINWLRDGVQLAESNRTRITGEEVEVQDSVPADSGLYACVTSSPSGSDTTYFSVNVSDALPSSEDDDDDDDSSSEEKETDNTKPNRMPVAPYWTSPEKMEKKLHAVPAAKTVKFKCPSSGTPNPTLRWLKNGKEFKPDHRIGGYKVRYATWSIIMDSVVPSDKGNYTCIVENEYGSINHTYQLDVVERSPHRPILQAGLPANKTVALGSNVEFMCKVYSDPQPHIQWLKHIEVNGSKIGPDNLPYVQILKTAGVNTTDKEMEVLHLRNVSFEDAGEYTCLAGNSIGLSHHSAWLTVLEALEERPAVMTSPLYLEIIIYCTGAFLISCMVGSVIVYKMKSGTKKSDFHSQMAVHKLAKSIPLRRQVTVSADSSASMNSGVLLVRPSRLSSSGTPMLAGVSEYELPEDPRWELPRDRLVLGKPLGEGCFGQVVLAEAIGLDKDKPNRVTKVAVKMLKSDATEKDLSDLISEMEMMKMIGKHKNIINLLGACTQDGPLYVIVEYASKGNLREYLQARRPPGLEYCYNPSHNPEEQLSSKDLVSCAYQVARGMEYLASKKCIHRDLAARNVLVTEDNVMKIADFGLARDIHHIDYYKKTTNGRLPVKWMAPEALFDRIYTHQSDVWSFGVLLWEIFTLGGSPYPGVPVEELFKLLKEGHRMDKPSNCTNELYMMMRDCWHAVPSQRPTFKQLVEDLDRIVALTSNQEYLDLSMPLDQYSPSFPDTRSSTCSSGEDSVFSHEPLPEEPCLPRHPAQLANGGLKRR
Summary of the method: as §1

FLT3 = target: T2, FLT3 (Homo sapiens, UniProt P36888)
T2 sequence (P36888 1-993): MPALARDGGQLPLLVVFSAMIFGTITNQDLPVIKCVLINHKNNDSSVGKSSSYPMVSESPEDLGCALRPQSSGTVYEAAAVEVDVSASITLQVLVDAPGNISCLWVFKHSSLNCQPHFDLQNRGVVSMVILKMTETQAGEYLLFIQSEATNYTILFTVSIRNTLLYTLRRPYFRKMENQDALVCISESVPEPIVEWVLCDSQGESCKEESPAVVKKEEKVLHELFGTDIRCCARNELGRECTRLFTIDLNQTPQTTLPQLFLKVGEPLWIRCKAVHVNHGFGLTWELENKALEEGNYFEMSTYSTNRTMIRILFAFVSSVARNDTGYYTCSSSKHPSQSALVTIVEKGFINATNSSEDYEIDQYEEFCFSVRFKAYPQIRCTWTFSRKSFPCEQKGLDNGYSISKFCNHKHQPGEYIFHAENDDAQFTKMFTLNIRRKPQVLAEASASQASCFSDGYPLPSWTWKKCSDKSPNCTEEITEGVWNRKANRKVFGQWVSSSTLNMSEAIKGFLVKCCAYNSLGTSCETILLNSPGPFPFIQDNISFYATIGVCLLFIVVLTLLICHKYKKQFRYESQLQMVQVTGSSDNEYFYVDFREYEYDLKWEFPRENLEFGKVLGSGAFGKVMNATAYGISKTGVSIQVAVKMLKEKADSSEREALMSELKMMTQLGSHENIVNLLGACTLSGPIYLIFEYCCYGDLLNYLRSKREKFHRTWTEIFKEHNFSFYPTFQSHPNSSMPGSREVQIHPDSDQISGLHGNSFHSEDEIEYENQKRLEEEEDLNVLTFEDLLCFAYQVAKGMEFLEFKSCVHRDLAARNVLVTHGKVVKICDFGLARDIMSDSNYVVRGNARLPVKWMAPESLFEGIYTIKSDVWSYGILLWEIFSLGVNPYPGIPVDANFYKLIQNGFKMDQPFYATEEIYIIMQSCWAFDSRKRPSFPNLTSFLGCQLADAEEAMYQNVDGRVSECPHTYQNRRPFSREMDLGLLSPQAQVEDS
Summary of the method: as §1

[1] = read-out: Kinome Profiling performed by Eurofins DiscoverX / AM-1882, 1.0 µM / POC
[2] = read-out: Kinome Profiling performed by Eurofins DiscoverX / AM-0277, 1.0 µM / POC
[3] = read-out: Kinome Profiling performed by Eurofins DiscoverX / AM-5308, 1.0 µM / POC

CC(C)(C)NS(=O)(=O)c1cccc(NC(=O)c2ccc(S(=O)(=O)NC(C)(C)C)cc2N2CCC3(CC2)CC3)c1 [AM-1882]
remaining activity at 1 µM (Aurora 2; [1]): 100% | remaining activity at 1 µM (FGFR1; [1]): 98% | remaining activity at 1 µM (FLT3; [1]): 88%

CC(C)(CO)Nc1ccc(C(=O)Nc2cccc(S(=O)(=O)C3CCCC3)c2)c(N2CCC3(CC2)CC3)n1 [AM-0277]
remaining activity at 1 µM (Aurora 2; [2]): 100% | remaining activity at 1 µM (FGFR1; [2]): 94% | remaining activity at 1 µM (FLT3; [2]): 94%

C[C@@H]1CN(c2cccc(NC(=O)c3ccc(NS(=O)(=O)CCO)cc3N3CCC4(CC3)CC4)n2)CCO1 [AM-5308]
remaining activity at 1 µM (Aurora 2; [3]): 100% | remaining activity at 1 µM (FGFR1; [3]): 94.5% | remaining activity at 1 µM (FLT3; [3]): 90.5%
